# Laboratory results published in patent publication US11236102B2, “Oxabicycloheptane prodrugs” (Lixte Biotechnology, Inc., priority 2015, dated 2022).
# “Also recorded” adds a separate entry of the source.
# Legend:
# [1] = Pharmacokinetic study of 100 (iv 0.5, 1.0, 1.5 mg/kg) in SD rats: 100 and endothal in plasma, liver, brain; format: in vivo; settings: for Endothal brain concentration / Endothal plasma concentration: SD rats
# Description: 100 was administrated via iv route at 0.5, 1.0 and 1.5 mg/kg into SD rats. The blood, liver and brain tissue samples were collected at predetermined times from rats.
# Twelve (12) female SD rats per group were dosed by iv with 100. The rats were fasted overnight prior to dosing, with free access to water. Foods were withheld for 2 hours post-dose. Blood, liver and brain tissue samples in two animals each group were collected at each time point, within 10% of the scheduled time for each time point. Two extra animals were used for analytic method development. Blood (>0.3 mL) were collected via aorta abdominalis in anaesthetic animals into tubes containing heparin at 15 min, 1, 2, 6, 10 and 24 hours after iv administration. Liver and brain tissues were collected immediately after animal death. The liver and brain tissues were excised and rinsed with cold saline to avoid blood residual. Upon collection, each sample was placed on ice and the blood samples were subsequently centrifuged (4° C., 11000 rpm, 5 min) to separate plasma. The obtained plasma, liver and brain tissue samples were stored at −70° C. until LC-MS/MS analysis.
# AUC0-∞ (AUCINF) is the area under the plasma concentration-time curve with last concentration extrapolated based on the elimination rate constant.
# [2] = Pharmacokinetic study of 157 (iv, po) in SD rats: 157 and endothal in plasma, liver, brain; format: in vivo; design: Tmax: dose or concentration left out as unconfirmed; settings: for Endothal plasma concentration: individual rats
# Description: The blood, liver and brain tissue samples were collected at predetermined times from rats. […] Compound were diluted shortly before use in 4% sodium bicarbonate for sterile injection (this is the standard pediatric solution of NaHCO3 with a pH of about 8.5).
# Compound 153 was freshly prepared by diluting the drugs shortly before use in 4% sodium bicarbonate for sterile injection (this is the standard pediatric solution of NaHCO3 with a pH of about 8.5). The final concentrations of 153 solutions were 0.25 mg/mL. The 153 solutions were administered via iv or po route at dose volume of 5 ml/kg according to the latest body weight. Compound 157 was freshly prepared by diluting the drugs shortly before use in 4% sodium bicarbonate for sterile injection (this is the standard pediatric solution of NaHCO3 with a pH of about 8.5). […] The 157 solutions were administered via iv or po route at dose volume of 5 ml/kg according to the latest body weight.
# Twelve (12) female SD rats per group were dosed by iv with 153 or 157. The rats were fasted overnight prior to dosing, with free access to water. Foods were withheld for 2 hours post-dose. Blood, liver and brain tissue samples in two animals each group were collected at each time point, within 10% of the scheduled time for each time point. Two extra animals were used for analytic method development.
# Blood (>0.3 mL) were collected via aorta abdominalis in anaesthetic animals into tubes containing heparin at 15 min, 1, 2, 6, 10 and 24 hours after iv administration. Liver and brain tissues were collected immediately after animal death. The liver and brain tissues were excised and rinsed with cold saline to avoid blood residual. Upon collection, each sample was placed on ice and the blood samples were subsequently centrifuged (4° C., 11000 rpm, 5 min) to separate plasma.
# The obtained plasma, liver and brain tissue samples were stored at −70° C. until LC-MS/MS analysis.
# Two (2) female SD rats per group were dosed by po with 153 or 157. The rats were fasted overnight prior to dosing, with free access to water. Foods were withheld for 2 hours post-dose. Blood samples (>0.3 mL) were collected via aorta abdominalis in anaesthetic animals into tubes containing heparin at 30 min, 1, 2, 6, 10 and 24 hours after po administration.
# To each sample, 30 μL IS-D (for blank samples, 20 μL acetonitrile:water (1:1) was added) and 300 ul acetonitrile was added. The sample mixture was vortexed for approximately 3 min. After centrifugation at 10000 rpm for 5 min at 4° C., 100 μL of the upper layer was transferred to a new tube and added 200 μL 0.4% formic acid in water (pH6.0). The mixture was vortexed for approximately 3 min before injected onto the LC/MS/MS system for analysis.
# On the day of the assay, the frozen liver and brain samples were thawed unassisted at room temperature. An about 200 mg weighed sample of each thawed tissue was placed into a plastic tube with water (0.6 mL) to facilitate homogenization. Tissue processing was conducted using a homogenizer for approximately 1 min, […] homogenate was transferred into a fresh Eppendorf tube. To each tube, 50 μL IS-D was added and mixed. Then 500 ul acetonitrile was added and the sample mixture was vortexed for approximately 3 min. After centrifugation at 10000 rpm for 5 min at 4° C., 100 μL of the upper layer was transferred to a new tube and evaporate the supernatant to dryness at 35° C. Reconstitute the residue with 200 μL of 0.4% formic acid in water (pH 6.0), and vortex for 3 min, submit for LC-MS/MS analysis.
# Frozen unknown plasma samples were completely thawed at room temperature and vortexed thoroughly. With a pipette, 50 μL of plasma was transferred into a 2.0 mL Eppendorf tube. 50 μL of 0.1N HCl and 800 μL ethyl acetate were added into each sample. The sample mixture was vortexed for approximately 3 min.
# [3] = 100 iv 0.5 mg/kg, 24 hr, individual rats
# [4] = female, Sprague-Dawley, rat, in vivo, iv, 1.5 mg/kg
smiles,measurement,setting,value
"O=C(O)C1C2CCC(O2)C1C(=O)O (stereo not shown) [Endothal, 7-oxabicyclo[2.2.1]heptane-2,3-dicarboxylic acid]",Endothal brain concentration,"[1]; 100 iv 0.5 mg/kg, 0.25 hr, individual rats",BLQ
same,Endothal brain concentration,"[1]; 100 iv 0.5 mg/kg, 0.25 hr, mean",BLQ
same,Endothal brain concentration,"[1]; 100 iv 0.5 mg/kg, 1 hr, individual rats",BLQ
same,Endothal brain concentration,"[1]; 100 iv 0.5 mg/kg, 1 hr, mean",BLQ
same,Endothal brain concentration,"[1]; 100 iv 0.5 mg/kg, 2 hr, individual rats",BLQ
same,Endothal brain concentration,"[1]; 100 iv 0.5 mg/kg, 2 hr, mean",BLQ
same,Endothal brain concentration,"[1]; 100 iv 0.5 mg/kg, 6 hr, individual rats",BLQ
same,Endothal plasma concentration,"[1]; 100 iv 0.5 mg/kg, 6 hr, individual rats, 0.5 mg/kg",BLQ
same,Endothal brain concentration,"[1]; 100 iv 0.5 mg/kg, 6 hr, mean",BLQ
same,Endothal brain concentration,"[1]; 100 iv 0.5 mg/kg, 10 hr, individual rats",BLQ
same,Endothal brain concentration,"[1]; 100 iv 0.5 mg/kg, 10 hr, mean",BLQ
same,Endothal brain concentration,[1]; [3],BLQ
same,Endothal plasma concentration,[1]; [3],BLQ
same,Endothal brain concentration,"[1]; 100 iv 0.5 mg/kg, 24 hr, mean",BLQ
same,Endothal plasma concentration,"[1]; 100 iv 0.5 mg/kg, 24 hr, mean",BLQ
same,Endothal brain concentration,"[1]; 100 iv 1.0 mg/kg, 0.25 hr, individual rats",BLQ
same,Endothal brain concentration,"[1]; 100 iv 1.0 mg/kg, 0.25 hr, mean",BLQ
same,Endothal brain concentration,"[1]; 100 iv 1.0 mg/kg, 1 hr, individual rats",BLQ
same,Endothal brain concentration,"[1]; 100 iv 1.0 mg/kg, 1 hr, mean",BLQ
same,Endothal brain concentration,"[1]; 100 iv 1.0 mg/kg, 2 hr, individual rats",BLQ
same,Endothal brain concentration,"[1]; 100 iv 1.0 mg/kg, 2 hr, mean",BLQ
same,Endothal brain concentration,"[1]; 100 iv 1.0 mg/kg, 6 hr, individual rats",BLQ
same,Endothal brain concentration,"[1]; 100 iv 1.0 mg/kg, 6 hr, mean",BLQ
same,Endothal brain concentration,"[1]; 100 iv 1.0 mg/kg, 10 hr, individual rats",BLQ
same,Endothal brain concentration,"[1]; 100 iv 1.0 mg/kg, 10 hr, mean",BLQ
same,Endothal brain concentration,"[1]; 100 iv 1.0 mg/kg, 24 hr, individual rats",BLQ
same,Endothal brain concentration,"[1]; 100 iv 1.0 mg/kg, 24 hr, mean",BLO
same,Endothal brain concentration,"[1]; 100 iv 1.5 mg/kg, 0.25 hr, individual rats",BLQ
same,Endothal brain concentration,"[1]; 100 iv 1.5 mg/kg, 0.25 hr, mean",BLQ
same,Endothal brain concentration,"[1]; 100 iv 1.5 mg/kg, 1 hr, individual rats",BLQ
same,Endothal brain concentration,"[1]; 100 iv 1.5 mg/kg, 1 hr, mean",BLQ
same,Endothal brain concentration,"[1]; 100 iv 1.5 mg/kg, 2 hr, individual rats",BLQ
same,Endothal brain concentration,"[1]; 100 iv 1.5 mg/kg, 2 hr, mean",BLQ
same,Endothal brain concentration,"[1]; 100 iv 1.5 mg/kg, 6 hr, individual rats",BLQ
same,Endothal brain concentration,"[1]; 100 iv 1.5 mg/kg, 6 hr, mean",BLQ
same,Endothal brain concentration,"[1]; 100 iv 1.5 mg/kg, 10 hr, individual rats",BLQ
same,Endothal brain concentration,"[1]; 100 iv 1.5 mg/kg, 10 hr, mean",BLQ
same,Endothal brain concentration,"[1]; 100 iv 1.5 mg/kg, 24 hr, individual rats",BLQ
same,Endothal brain concentration,"[1]; 100 iv 1.5 mg/kg, 24 hr, mean",BLQ
same,half-life,"[1]; Sprague-Dawley, rat, in vivo",~6 h
same,detectability in brain samples,"[1]; endothal after single iv 100 at 0.5, 1.0 and 1.5 mg/kg",not detectable; also recorded: undetectable
same,AUClast in plasma,[1]; [4],546 to 4476 ng·h/mL
same,Cmax,[1]; [4],349 to 2960 ng/g
same,T1/2 in liver,[1]; [4],4.57 to 10.1 h
same,T1/2 in plasma,[1]; [4],6.25 to 7.06 h
same,mean Cmax in plasma,[1]; [4],577 to 1230 ng/mL
same,AUClast in liver,"[1]; rat, in vivo, iv, 1.5 mg/kg",2598 to 18434 ng·h/g
same,detectability in brain samples,"[2]; endothal after single iv 157 at 1.5 mg/kg, 1.5 mg/kg",not detectable; also recorded: undetectable
same,Tmax,"[2]; female, SD, rat, in vivo, po",2 h
same,AUC,[2]; [4],374 ng·h/mL
same,Cmax,[2]; [4],3720 ng/mL
same,Endothal plasma concentration,"[2]; iv administration of 157, 10 hr",BLQ
same,Endothal plasma concentration,"[2]; iv administration of 157, 24 hr",BLQ
same,Endothal plasma concentration,"[2]; po administration of 157, 10 hr",BLQ
same,AUClast in liver,"[2]; rat, in vivo, iv, 1.5 mg/kg",15025 ng·h/g
